Source: the supplement of paper PMC10307832

How the values were obtained:
IU1-47 = compound: CC1=CC(=C(N1C2=CC=C(C=C2)Cl)C)C(=O)CN3CCCCC3 [IU1-47]; experiment: relative viability (nuclei count vs DMSO), 5 days (fraction); higher = more cells survive
Procedure, shortened: (§1)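 Cells of lung cancer lines were placed in 1536-well plates and kept overnight at 37 °C. Pinning then delivered five library-drug doses (not always all listed), spaced by √10, onto plates anchored with vehicle, and the cells were left 5 days without changing medium. One step fixed, permeabilised and stained them with Hoechst, and MetaXpress counted nuclei in 4× images. Viability, as a median over plates, is treated-well nuclei divided by vehicle-well nuclei, with acceptance only at control CV below 25% and at least one doubling.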

FG-4592 = compound: Cc1nc(C(=O)NCC(=O)O)c(O)c2ccc(Oc3ccccc3)cc12 [FG-4592]; experiment: as above
Procedure, shortened: as §1

For 201T, the relative viability (IU1-47; 0.08 µM) was 0.961, the relative viability (IU1-47; 0.253 µM) was 0.99 and the relative viability (IU1-47; 0.8 µM) was 1.07. For the same cell line, the relative viability (IU1-47; 2.53 µM) was 0.53, the relative viability (IU1-47; 8 µM) was 0.941 and the relative viability (FG-4592; 0.08 µM) was 0.941. It also gave a relative viability (FG-4592; 0.253 µM) of 0.955, a relative viability (FG-4592; 0.8 µM) of 0.974 and a relative viability (FG-4592; 2.53 µM) of 1. The relative viability (FG-4592; 8 µM) was 0.982.
Work on A549 yielded a relative viability (IU1-47; 0.08 µM) of 1.06, a relative viability (IU1-47; 0.253 µM) of 1.07 and a relative viability (IU1-47; 0.8 µM) of 0.978. The relative viability (IU1-47; 2.53 µM) was 0.937, the relative viability (IU1-47; 8 µM) was 1.01 and the relative viability (FG-4592; 0.08 µM) was 0.979. It also gave a relative viability (FG-4592; 0.253 µM) of 0.86, a relative viability (FG-4592; 0.8 µM) of 0.974 and a relative viability (FG-4592; 2.53 µM) of 1.02. The relative viability (FG-4592; 8 µM) was 0.911.
For A-427, the relative viability (IU1-47; 0.08 µM) was 1.03, the relative viability (IU1-47; 0.253 µM) was 1.04 and the relative viability (IU1-47; 0.8 µM) was 1.12. For the same cell line, the relative viability (IU1-47; 2.53 µM) was 0.549, the relative viability (IU1-47; 8 µM) was 0.956 and the relative viability (FG-4592; 0.08 µM) was 0.923. It also gave a relative viability (FG-4592; 0.253 µM) of 0.916, a relative viability (FG-4592; 0.8 µM) of 0.797 and a relative viability (FG-4592; 2.53 µM) of 0.866. The relative viability (FG-4592; 8 µM) was 0.897.
With ABC-1 the relative viability (IU1-47; 0.08 µM) was 1.03, the relative viability (IU1-47; 0.253 µM) was 1.01 and the relative viability (IU1-47; 0.8 µM) was 0.888. For the same cell line, the relative viability (IU1-47; 8 µM) was 0.876, the relative viability (FG-4592; 0.08 µM) was 0.814 and the relative viability (FG-4592; 0.253 µM) was 0.824. The relative viability (FG-4592; 0.8 µM) was 0.924, the relative viability (FG-4592; 2.53 µM) was 0.949 and the relative viability (FG-4592; 8 µM) was 0.77.
For BEN, the relative viability (IU1-47; 0.08 µM) was 1.02, the relative viability (IU1-47; 0.253 µM) was 1.01 and the relative viability (IU1-47; 0.8 µM) was 1.12. The relative viability (IU1-47; 2.53 µM) was 0.781, the relative viability (IU1-47; 8 µM) was 0.971 and the relative viability (FG-4592; 0.08 µM) was 0.787. For the same cell line, the relative viability (FG-4592; 0.253 µM) was 0.734, the relative viability (FG-4592; 0.8 µM) was 0.822 and the relative viability (FG-4592; 2.53 µM) was 1.03. The relative viability (FG-4592; 8 µM) was 0.733.
CAL-12T showed a relative viability (IU1-47; 0.08 µM) of 0.916, a relative viability (IU1-47; 0.253 µM) of 0.919 and a relative viability (IU1-47; 0.8 µM) of 1.03. It also gave a relative viability (IU1-47; 2.53 µM) of 0.826, a relative viability (IU1-47; 8 µM) of 0.879 and a relative viability (FG-4592; 0.08 µM) of 0.973. For the same cell line, the relative viability (FG-4592; 0.253 µM) was 0.864, the relative viability (FG-4592; 0.8 µM) was 1.05 and the relative viability (FG-4592; 2.53 µM) was 0.906. It also gave a relative viability (FG-4592; 8 µM) of 0.894.
For COR-L23, the relative viability (IU1-47; 0.08 µM) was 1.1, the relative viability (IU1-47; 0.253 µM) was 1.08 and the relative viability (IU1-47; 0.8 µM) was 1.15. It also gave a relative viability (IU1-47; 2.53 µM) of 0.938, a relative viability (IU1-47; 8 µM) of 1.15 and a relative viability (FG-4592; 0.08 µM) of 0.97. For the same cell line, the relative viability (FG-4592; 0.253 µM) was 1.01, the relative viability (FG-4592; 0.8 µM) was 1.11 and the relative viability (FG-4592; 2.53 µM) was 0.902. The relative viability (FG-4592; 8 µM) was 1.03.
For COR-L 105, the relative viability (IU1-47; 0.08 µM) was 0.95, the relative viability (IU1-47; 0.253 µM) was 0.901 and the relative viability (IU1-47; 0.8 µM) was 1.02. The relative viability (IU1-47; 2.53 µM) was 0.899, the relative viability (IU1-47; 8 µM) was 0.91 and the relative viability (FG-4592; 0.08 µM) was 0.921. It also gave a relative viability (FG-4592; 0.253 µM) of 0.938, a relative viability (FG-4592; 0.8 µM) of 0.909 and a relative viability (FG-4592; 2.53 µM) of 0.821. The relative viability (FG-4592; 8 µM) was 0.801.
Cell Line Calu-6 has a relative viability (IU1-47; 0.08 µM) of 1, a relative viability (IU1-47; 0.253 µM) of 1.06 and a relative viability (IU1-47; 0.8 µM) of 1.07. It also gave a relative viability (IU1-47; 2.53 µM) of 1.04, a relative viability (IU1-47; 8 µM) of 1.02 and a relative viability (FG-4592; 0.08 µM) of 0.945. The relative viability (FG-4592; 0.253 µM) was 0.995, the relative viability (FG-4592; 0.8 µM) was 1.03 and the relative viability (FG-4592; 2.53 µM) was 0.975. For the same cell line, the relative viability (FG-4592; 8 µM) was 1.02.
Work on ChaGo-K-1 yielded a relative viability (IU1-47; 0.08 µM) of 0.982, a relative viability (IU1-47; 0.253 µM) of 0.997 and a relative viability (IU1-47; 0.8 µM) of 1.04. For the same cell line, the relative viability (IU1-47; 2.53 µM) was 0.811, the relative viability (IU1-47; 8 µM) was 0.821 and the relative viability (FG-4592; 0.08 µM) was 0.97. The relative viability (FG-4592; 0.253 µM) was 0.975, the relative viability (FG-4592; 0.8 µM) was 0.935 and the relative viability (FG-4592; 2.53 µM) was 0.967. The relative viability (FG-4592; 8 µM) was 0.937.
Cell Line EBC-1 has a relative viability (IU1-47; 0.08 µM) of 1.06, a relative viability (IU1-47; 0.253 µM) of 0.954 and a relative viability (IU1-47; 0.8 µM) of 1.05. It also gave a relative viability (IU1-47; 2.53 µM) of 0.921, a relative viability (IU1-47; 8 µM) of 0.867 and a relative viability (FG-4592; 0.08 µM) of 1.07. It also gave a relative viability (FG-4592; 0.253 µM) of 0.977, a relative viability (FG-4592; 0.8 µM) of 0.95 and a relative viability (FG-4592; 2.53 µM) of 0.94. The relative viability (FG-4592; 8 µM) was 0.953.
For EKVX, the relative viability (IU1-47; 0.08 µM) was 1.23, the relative viability (IU1-47; 0.253 µM) was 1.12 and the relative viability (IU1-47; 0.8 µM) was 1.03. It also gave a relative viability (IU1-47; 2.53 µM) of 0.859, a relative viability (IU1-47; 8 µM) of 0.943 and a relative viability (FG-4592; 0.08 µM) of 1.03. It also gave a relative viability (FG-4592; 0.253 µM) of 0.809, a relative viability (FG-4592; 0.8 µM) of 0.932 and a relative viability (FG-4592; 2.53 µM) of 0.941. The relative viability (FG-4592; 8 µM) was 0.992.
Cell Line EMC-BAC-2 has a relative viability (IU1-47; 0.08 µM) of 1.1, a relative viability (IU1-47; 0.253 µM) of 1.09 and a relative viability (IU1-47; 0.8 µM) of 0.974. For the same cell line, the relative viability (IU1-47; 2.53 µM) was 0.977, the relative viability (IU1-47; 8 µM) was 0.974 and the relative viability (FG-4592; 0.08 µM) was 0.947. The relative viability (FG-4592; 0.253 µM) was 0.929, the relative viability (FG-4592; 0.8 µM) was 0.674 and the relative viability (FG-4592; 2.53 µM) was 0.938. The relative viability (FG-4592; 8 µM) was 0.779.
